Here are results for five molecules from patent US6974837B2, “Compositions comprising sibutramine metabolites in combination with phosphodiesterase inhibitors” (Sepracor Inc., priority 1999, dated 2005).

Experiment [1] concerns the target human recombinant norepinephrine (NE) uptake site (Homo sapiens, UniProt P23975). Description: Binding at the norepinephrine (NE) uptake site.
For experiment [2], the target named is nonselective muscarinic receptor. Kind of experiment: Binding at the nonselective muscarinic receptor. Further details: species or system rat. To be noted: for IC50: rat cerebral cortex.
Experiment [3] has as its target serotonin (5-HT) uptake site (Rattus norvegicus, UniProt P31652).
The mark [4] stands for this setting: human recombinant NE uptake site, read-out: Binding IC50 NE Uptake.

Structures are written as SMILES. Where two headings read alike, the source gives them in different places.

Sequence of human recombinant norepinephrine (NE) uptake site (P23975 whole entry): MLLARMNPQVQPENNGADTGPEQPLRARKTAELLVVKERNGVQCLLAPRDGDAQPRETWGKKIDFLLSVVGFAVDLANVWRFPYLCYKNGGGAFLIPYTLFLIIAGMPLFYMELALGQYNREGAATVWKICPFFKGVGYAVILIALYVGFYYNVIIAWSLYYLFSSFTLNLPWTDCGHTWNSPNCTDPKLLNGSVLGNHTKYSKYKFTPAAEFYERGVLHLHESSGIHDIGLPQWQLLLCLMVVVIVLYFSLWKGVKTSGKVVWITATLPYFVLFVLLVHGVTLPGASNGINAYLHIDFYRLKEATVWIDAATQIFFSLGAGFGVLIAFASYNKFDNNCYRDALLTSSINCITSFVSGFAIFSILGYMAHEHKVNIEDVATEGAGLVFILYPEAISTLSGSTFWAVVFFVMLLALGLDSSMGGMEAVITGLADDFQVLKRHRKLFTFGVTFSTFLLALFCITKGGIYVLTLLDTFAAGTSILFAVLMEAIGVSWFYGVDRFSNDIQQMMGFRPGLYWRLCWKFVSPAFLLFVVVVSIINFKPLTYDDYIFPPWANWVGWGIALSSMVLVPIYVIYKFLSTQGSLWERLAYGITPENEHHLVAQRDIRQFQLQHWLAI
Sequence of serotonin (5-HT) uptake site (P31652 whole entry): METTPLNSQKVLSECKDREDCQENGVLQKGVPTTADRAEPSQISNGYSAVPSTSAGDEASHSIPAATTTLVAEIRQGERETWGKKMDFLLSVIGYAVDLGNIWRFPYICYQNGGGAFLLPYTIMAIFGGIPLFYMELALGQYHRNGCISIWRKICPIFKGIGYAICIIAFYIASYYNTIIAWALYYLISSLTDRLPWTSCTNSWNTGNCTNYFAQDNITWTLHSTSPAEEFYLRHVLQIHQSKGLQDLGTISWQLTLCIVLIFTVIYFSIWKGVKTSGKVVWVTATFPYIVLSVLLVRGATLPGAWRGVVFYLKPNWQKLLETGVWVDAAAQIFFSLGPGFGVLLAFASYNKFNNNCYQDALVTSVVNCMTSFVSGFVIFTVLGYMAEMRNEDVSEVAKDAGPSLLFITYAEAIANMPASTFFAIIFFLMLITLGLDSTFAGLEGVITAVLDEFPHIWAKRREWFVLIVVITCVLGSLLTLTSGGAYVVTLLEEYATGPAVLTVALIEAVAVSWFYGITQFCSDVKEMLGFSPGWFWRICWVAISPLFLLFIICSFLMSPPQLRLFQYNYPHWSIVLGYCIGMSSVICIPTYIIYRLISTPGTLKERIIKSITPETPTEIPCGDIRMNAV

For the molecule `CN[C@@H](CC(C)C)C1(c2ccc(Cl)cc2)CCC1` [(S)-desMe], the IC50 in experiment [1] is 870 nM; in experiment [2], 654 nM.

For the molecule `CN[C@H](CC(C)C)C1(c2ccc(Cl)cc2)CCC1` [(R)-desMe], in experiment [1], the “NE uptake site binding / inhibition (in words)” value was “potent inhibitors”. Besides, the concentration for half-maximal inhibition (IC50) in experiment [1] (setting [4]) worked out at 4 nM. Also, the “affinity / activity at muscarinic site (in words)” value in experiment [2] is “negligible activity”. Besides, in experiment [3], the “5-HT uptake site binding / inhibition (in words)” value is given as “potent inhibitors”.

In turn, `CN1[C@@H]2CC[C@H]1C[C@@H](OC(=O)C(CO)c1ccccc1)C2` (stereo partly shown) [Atropine, reference compound] displayed an IC50 in experiment [2] of 0.31 nM.

For the molecule `CC(C)C[C@@H](N)C1(c2ccc(Cl)cc2)CCC1` [(R)-didesMe], the “NE uptake site binding / inhibition (in words)” value in experiment [1] was “potent inhibitors”. The half-inhibitory concentration (IC50) in experiment [1] (setting [4]) stood at 13 nM. For the same molecule, the “affinity / activity at muscarinic site (in words)” value in experiment [2] is given as “negligible activity”. For the same molecule, in experiment [3], the “5-HT uptake site binding / inhibition (in words)” value is on record as “potent inhibitors”.

As to `CNC(CC(C)C)C1(c2ccc(Cl)cc2)CCC1` (racemic) [(R/S)-desMe, 1-(4-chlorophenyl)-N-methyl-2-(2-methylpropyl)-cyclobutanamethamine], the results for the half-maximal inhibitory concentration (IC50) in experiment [1] and in experiment [2] were 10 nM and 1170 nM, respectively.

A word on the IC50: it is the concentration that gives 50% inhibition.
